Reference: ChEMBL document CHEMBL2074078, “Interaction of common azole antifungals with P glycoprotein” (Antimicrob Agents Chemother, 2002)

Target: ATP-dependent translocase ABCB1 (Homo sapiens, UniProt P08183)
Assay: TP_TRANSPORTER: inhibition of Daunorubicin transport in G185 cells
Type: functional, cell-based
Settings: mouse

ATP-dependent translocase ABCB1, sequence (P08183 whole entry): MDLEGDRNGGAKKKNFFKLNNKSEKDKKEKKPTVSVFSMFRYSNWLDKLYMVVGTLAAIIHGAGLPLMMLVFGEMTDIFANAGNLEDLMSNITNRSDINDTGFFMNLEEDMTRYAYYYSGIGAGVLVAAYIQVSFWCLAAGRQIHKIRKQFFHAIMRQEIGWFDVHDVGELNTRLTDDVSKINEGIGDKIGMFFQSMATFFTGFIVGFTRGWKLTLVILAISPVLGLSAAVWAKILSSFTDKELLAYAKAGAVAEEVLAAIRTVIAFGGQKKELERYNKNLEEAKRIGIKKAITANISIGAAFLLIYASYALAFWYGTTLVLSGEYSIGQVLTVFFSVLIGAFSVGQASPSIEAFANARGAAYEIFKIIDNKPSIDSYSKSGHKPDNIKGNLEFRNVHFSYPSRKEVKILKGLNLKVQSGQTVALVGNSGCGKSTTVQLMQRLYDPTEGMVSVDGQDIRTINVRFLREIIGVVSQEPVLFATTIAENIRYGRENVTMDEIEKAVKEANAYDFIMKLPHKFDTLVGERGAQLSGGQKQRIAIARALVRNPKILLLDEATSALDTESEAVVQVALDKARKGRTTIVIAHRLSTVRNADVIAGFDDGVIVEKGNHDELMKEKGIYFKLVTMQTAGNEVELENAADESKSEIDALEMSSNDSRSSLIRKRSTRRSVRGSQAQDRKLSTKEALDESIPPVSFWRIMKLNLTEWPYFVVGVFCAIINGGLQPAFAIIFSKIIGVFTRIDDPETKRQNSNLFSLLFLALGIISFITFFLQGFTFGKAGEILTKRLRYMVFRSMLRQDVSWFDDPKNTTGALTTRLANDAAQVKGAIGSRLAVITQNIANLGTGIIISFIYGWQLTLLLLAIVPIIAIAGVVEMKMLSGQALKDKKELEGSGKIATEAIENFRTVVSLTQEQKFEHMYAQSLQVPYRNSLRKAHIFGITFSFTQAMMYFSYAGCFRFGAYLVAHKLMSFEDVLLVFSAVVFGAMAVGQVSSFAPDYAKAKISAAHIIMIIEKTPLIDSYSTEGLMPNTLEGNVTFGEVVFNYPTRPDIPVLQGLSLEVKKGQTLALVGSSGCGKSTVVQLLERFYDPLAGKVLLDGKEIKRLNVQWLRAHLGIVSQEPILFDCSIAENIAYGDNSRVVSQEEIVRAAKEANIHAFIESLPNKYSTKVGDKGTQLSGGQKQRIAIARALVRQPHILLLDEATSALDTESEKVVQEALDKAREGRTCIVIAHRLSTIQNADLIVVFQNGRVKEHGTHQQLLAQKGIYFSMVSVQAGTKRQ

OC(Cn1cncn1)(Cn1cncn1)c1ccc(F)cc1F [FLUCONAZOLE]
Activity: is not an inhibitor [-]
